According to patent US10253041B2, “7-phenylethylamino-4H-pyrimido[4,5-d][1,3]oxazin-2-one compounds and their use as mutant IDH1 inhibitors” (Eli Lilly and Company, priority 2015, dated 2019):

Molecular target: T1, IDH1 Wild-Type (Homo sapiens, UniProt O75874)
T1 construct: His-tag (N); made in house; host or cells: E. coli
Assay: Biochemical assay for wild-type IDH1 enzyme (αKG by LC-MS)
Settings: mean ± standard deviation of the mean
Experimental: IDH1 and IDH2 enzymes catalyze the conversion of isocitrate to αKG. Wild-type IDH1 (National Center for Biotechnology Information, Accession: NP_001269316.1) and IDH2 (National Center for Biotechnology Information, Accession: EAX02082.1) proteins containing N-terminal His-tag are expressed in E. coli and purified using nickel affinity chromatography. The enzyme assays are carried out in V-bottom 96 well polypropylene plates containing 100 mM Tris-HCl buffer at pH 7.5, 1 mM DTT, 0.005% TRITON™ X-100, 120 mM NaCl. For the IDH1 wild-type assay isocitrate, NADP^+ and MnCl2 are included at the concentrations of 85 μM, 50 μuM and 20 μM respectively. For the IDH2 wild-type assay isocitrate, NADP^+ and MnCl2 are included at the concentrations of 30 μM, 50 μM and 10 μM respectively. Inhibitors dissolved in a DMSO stock solution are diluted in the reaction mixture at a final DMSO concentration of 4%. The enzyme assay is terminated (quenched) by adding ACN (50:50) containing d6-2-ketopentanedioic acid (d6-αKG) as an internal standard for mass spectrometry analysis. Ten microliters of reaction mixture is combined with 100 μL of water, 50 μL of 1 M O-benzylhydroxylamine in pyridine buffer (8.6% pyridine, pH 5), and 50 μL of 1 M N-(3-dimethylaminopropyl)-N-ethylcarbodiimide hydrochloride (EDC) in pyridine buffer. Following derivatization at room temperature for one hour, samples are extracted with 600 μL of EtOAc. Four hundred […] of the upper layer is removed, dried under heated nitrogen and reconstituted with 100 μL of MeOH/water (1:1). Ten μL of derivatized sample is injected onto an LC-MS system consisting of a Shimadzu Prominence 20A HPLC system and a The Thermo Quantum Ultra™ triple quadrupole mass spectrometer. Analytes are separated on a Waters XBridge™ C18 column (2.1×50 mm, […]) with a flow rate of 0.6 mL/minute. Mobile phase A is 0.1% formic acid in water and mobile phase B is MeOH. The αKG signal detected is transformed into analyte concentration using a calibration curve generated using known αKG concentrations. […] IC50 values are obtained from the individual % inhibition values at different compound concentrations using a 4-parameter equation. These calculations are carried out using Activity Base (IDBS) or Screener (Genedata) data analysis programs.

T1 sequence (O75874 whole entry): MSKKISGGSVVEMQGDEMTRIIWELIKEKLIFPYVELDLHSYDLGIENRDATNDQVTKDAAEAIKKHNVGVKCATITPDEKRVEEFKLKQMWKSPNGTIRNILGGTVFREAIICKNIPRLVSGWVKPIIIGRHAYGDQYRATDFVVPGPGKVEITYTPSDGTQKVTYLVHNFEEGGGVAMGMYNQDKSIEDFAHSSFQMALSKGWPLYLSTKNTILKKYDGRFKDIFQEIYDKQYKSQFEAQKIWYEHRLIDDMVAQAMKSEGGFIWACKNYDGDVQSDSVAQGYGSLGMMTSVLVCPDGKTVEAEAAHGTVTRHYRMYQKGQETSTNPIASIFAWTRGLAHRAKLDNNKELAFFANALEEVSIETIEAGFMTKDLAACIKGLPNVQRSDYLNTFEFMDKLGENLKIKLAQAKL

| Compound | IC50 [µM] |
| --- | --- |
| C=CC(=O)N1CCN(Cc2ccc([C@H](C)Nc3ncc4c(n3)N(CC(C)C)C(=O)OC4)cc2)CC1 [Example 3, 1-Isobutyl-7-[[(1S)-1-[4-[(4-prop-2-enoylpiperazin-1-yl)methyl]phenyl]ethyl]amino]-4H-pyrimido[4,5-d][1,3]oxazin-2-one] | 3.99 ± 1.9 |
| C=CC(=O)N1CC(OCc2ccc([C@H](C)Nc3ncc4c(n3)N(CC)C(=O)OC4)cc2)C1 [Example 4, 1-Ethyl-7-[[(1S)-1-[4-[(1-prop-2-enoylazetidin-3-yl)oxymethyl]phenyl]ethyl]amino]-4H-pyrimido[4,5-d][1,3]oxazin-2-one] | 0.484 ± 1.18 |
| C=CC(=O)N1CC2(CN(Cc3ccc([C@H](C)Nc4ncc5c(n4)N(CC(C)C)C(=O)OC5)cc3)C2)C1 [Example 5, 1-Isobutyl-7-[[(1S)-1-[4-[(2-prop-2-enoyl-2,6-diazaspiro[3.3]heptan-6-yl)methyl]phenyl]ethyl]amino]-4H-pyrimido[4,5-d][1,3]oxazin-2-one] | 1.84 ± 1.96 |
| C=CC(=O)N1CCN(c2ccc([C@H](C)Nc3ncc4c(n3)N(C(C)C)C(=O)OC4)cc2)CC1 [Example 6, 1-Isopropyl-7-[[(1S)-1-[4-(4-prop-2-enoylpiperazin-1-yl)phenyl]ethyl]amino]-4H-pyrimido[4,5-d][1,3]oxazin-2-one] | 11.8 ± 5.66 |
| C=CC(=O)N1CC(CCc2ccc([C@H](C)Nc3ncc4c(n3)N(CC)C(=O)OC4)cc2)C1 [Example 7, 1-Ethyl-7-[[(1S)-1-[4-[2-(1-prop-2-enoylazetidin-3-yl)ethyl]phenyl]ethyl]amino]-4H-pyrimido[4,5-d][1,3]oxazin-2-one] | 5.21 ± 4.64 |
| C=CC(=O)N1CCC2(CC1)CN(Cc1ccc([C@H](C)Nc3ncc4c(n3)N(C(C)C)C(=O)OC4)cc1)C2 [Example 8, 1-Isopropyl-7-[[(1S)-1-[4-[(7-prop-2-enoyl-2,7-diazaspiro[3.5]nonan-2-yl)methyl]phenyl]ethyl]amino]-4H-pyrimido[4,5-d][1,3]oxazin-2-one] | 26.5 ± 15.9 |
| C=CC(=O)N1CC(COc2ccc([C@H](C)Nc3ncc4c(n3)N(C(C)C)C(=O)OC4)cc2)C1 [Example 9, 1-Isopropyl-7-[[(1S)-1-[4-[(1-prop-2-enoylazetidin-3-yl)methoxy]-phenyl]ethyl]amino]-4H-pyrimido[4,5-d][1,3]oxazin-2-one] | 7.14 ± 13.1 |
| C=CC(=O)N1CC(N(C)Cc2ccc([C@H](C)Nc3ncc4c(n3)N(CC)C(=O)OC4)cc2)C1 [Example 10, 1-Ethyl-7-[[(1S)-1-[4-[[methyl-(1-prop-2-enoylazetidin-3-yl)amino]methyl]-phenyl]ethyl]amino]-4H-pyrimido[4,5-d][1,3]oxazin-2-one] | 10.6 ± 11.2 |
| C=CC(=O)N1CCN(Cc2ccc([C@H](C)Nc3ncc4c(n3)N([C@H](C)CO)C(=O)OC4)cc2)CC1 [Example 11, 1-[(1R)-2-Hydroxy-1-methyl-ethyl]-7-[[(1S)-1-[4-[(4-prop-2-enoylpiperazin-1-yl)methyl]phenyl]ethyl]amino]-4H-pyrimido[4,5-d][1,3]oxazin-2-one] | 8 ± 3.38 |
| C=CC(=O)N1CCC(N(C)Cc2ccc([C@H](C)Nc3ncc4c(n3)N(CC)C(=O)OC4)cc2)CC1 [Example 12, 1-Ethyl-7-[[(1S)-1-[4-[[methyl-(1-prop-2-enoyl-4-piperidyl)amino]-methyl]phenyl]ethyl]amino]-4H-pyrimido[4,5-d][1,3]oxazin-2-one] | 3.23 ± 6.87 |
| C=CC(=O)N1CC(OCc2ccc([C@H](C)Nc3ncc4c(n3)N(CC(C)C)C(=O)OC4)cc2)C1 [Example 13, 1-Isobutyl-7-[[(1S)-1-[4-[(1-prop-2-enoylazetidin-3-yl)oxymethyl]phenyl]ethyl]amino]-4H-pyrimido[4,5-d][1,3]oxazin-2-one] | 3.2 ± 2.54 |
| C=CC(=O)N1CC2(CN(Cc3ccc([C@H](C)Nc4ncc5c(n4)N(CC)C(=O)OC5)cc3)C2)C1 [Example 14, 1-Ethyl-7-[[(1S)-1-[4-[(2-prop-2-enoyl-2,6-diazaspiro[3.3]heptan-6-yl)methyl]phenyl]ethyl]amino]-4H-pyrimido[4,5-d][1,3]oxazin-2-one] | 5.8 ± 6.83 |
| C=CC(=O)N1CC2(CN(Cc3ccc([C@H](C)Nc4ncc5c(n4)N(C(C)C)C(=O)OC5)cc3)C2)C1 [Example 15, 1-Isopropyl-7-[[(1S)-1-[4-[(2-prop-2-enoyl-2,6-diazaspiro[3.3]heptan-6-yl)methyl]phenyl]ethyl]amino]-4H-pyrimido[4,5-d][1,3]oxazin-2-one] | 5.01 ± 2.25 |
| C=CC(=O)N1CCN(Cc2ccc([C@H](C)Nc3ncc4c(n3)N(CC)C(=O)OC4)cc2F)CC1 [Example 16, 1-Ethyl-7-[[(1S)-1-[3-fluoro-4-[(4-prop-2-enoylpiperazin-1-yl)methyl]phenyl]ethyl]amino]-4H-pyrimido[4,5-d][1,3]oxazin-2-one] | 8.68 ± 6.03 |
| C=CC(=O)N1CC(COc2ccc([C@H](C)Nc3ncc4c(n3)N(CC)C(=O)OC4)cc2)C1 [Example 17, 1-Ethyl-7-[[(1S)-1-[4-[(1-prop-2-enoylazetidin-3-yl)methoxy]phenyl]ethyl]amino]-4H-pyrimido[4,5-d][1,3]oxazin-2-one] | 0.421 ± 0.764 |
| C=CC(=O)N1CCN(Cc2ccc([C@H](C)Nc3ncc4c(n3)N(C)C(=O)OC4)cc2)CC1 [Example 19, 1-Methyl-7-[[(1S)-1-[4-[(4-prop-2-enoylpiperazin-1-yl)methyl]phenyl]ethyl]amino]-4H-pyrimido[4,5-d][1,3]oxazin-2-one] | 14.4 ± 0.2 |
| C=CC(=O)N1CCN(Cc2ccc([C@H](C)Nc3ncc4c(n3)N(CC(F)F)C(=O)OC4)cc2)CC1 [Example 20, 1-(2,2-difluoroethyl)-7-[[(1S)-1-[4-[(4-prop-2-enoylpiperazin-1-yl)methyl]phenyl]ethyl]amino]-4H-pyrimido[4,5-d][1,3]oxazin-2-one] | 4.32 ± 0.37 |
| C=CC(=O)N1CCN(Cc2ccc([C@H](C)Nc3ncc4c(n3)N(CCF)C(=O)OC4)cc2)CC1 [Example 21, 1-(2-fluoroethyl)-7-[[(1S)-1-[4-[(4-prop-2-enoylpiperazin-1-yl)methyl]phenyl]ethyl]amino]-4H-pyrimido[4,5-d][1,3]oxazin-2-one] | 6.58 ± 1.01 |
| C=CC(=O)N1CC=C(COc2ccc([C@H](C)Nc3ncc4c(n3)N(CC)C(=O)OC4)cc2)C1 [Example 22, 1-ethyl-7-[[(1S)-1-[4-[(1-prop-2-enoyl-2,5-dihydropyrrol-3-yl)methoxy]phenyl]ethyl]amino]-4H-pyrimido[4,5-d][1,3]oxazin-2-one] | 0.653 ± 0.042 |
